Results on 29 molecules are retold here after US20240218011A1, “GLUCOCORTICOID RECEPTOR AGONISTS AND CONJUGATES THEREOF” (FireFly Bio, Inc., priority 2022, published 2024).

The target of experiment [1] is T1, Glucocorticoid Receptor (GR) (Homo sapiens, UniProt P04150).
T1 construct: A GAL4-responsive firefly luciferase reporter is the read-out; Some cells also express CD40, which is irrelevant for the free small molecules
T1 sequence (P04150 524-777 limits assumed): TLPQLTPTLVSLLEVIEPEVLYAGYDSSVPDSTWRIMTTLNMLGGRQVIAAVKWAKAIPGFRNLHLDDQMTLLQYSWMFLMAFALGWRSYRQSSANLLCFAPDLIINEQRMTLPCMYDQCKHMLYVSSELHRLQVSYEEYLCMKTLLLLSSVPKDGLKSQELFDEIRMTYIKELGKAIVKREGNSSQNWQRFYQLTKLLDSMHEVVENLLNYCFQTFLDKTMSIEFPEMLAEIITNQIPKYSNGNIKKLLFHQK
Description: GR reporter assay (GR-GAL4 Reporter (Luc)-HEK293 cells, Steady-Glo luciferase). It counts as cell-based. Conditions: 24 hours, read-out: GR reporter agonist. As to the method: Certain GR agonist compounds of the present disclosure were tested in a GR reporter assay. Briefly, CD40 expressing GR-GAL4 Reporter (Luc)-HEK293 or parental GR-GAL4 reporter (Luc)-HEK293 cells were harvested from culture and seeded wells at a density of ˜30,000 cells per well in 45 μl of assay medium. Cells were incubated at 37° C. in a CO2 incubator overnight. […] The plates were incubated at 37° C. in a CO2 incubator for 24 hours. The Steady-Glo Luciferase Assay System (Promega), following manufacturer's instructions, was used to detect luminescence, which was measured using a luminometer.
The average background luminescence (cell-free control wells) was substracted from the luminescence reading of all wells. […] The EC50 value for each conjugate was determined in both CD40 expressing and parental GR-GAL4 Reporter (Luc)-HEK293 cells and the ratio was used to as a measure of linker stability and non-specific uptake.

In experiment [2] the test system is Human monocyte derived dendritic cells and allogeneic CD3+ T cells. The experiment is described as follows: Allo mixed lymphocyte assay (monocyte derived dendritic cells + allogeneic CD3+ T cells), cytokines by MSD ELISA. In kind it is cell-based. The conditions noted are these: 100 nM, 48 hrs co-culture, mean of duplicates. As to the method: Human monocyte derived dendritic cells were derived in vitro from healthy human donor CD 14^+ monocytes, isolated from blood by standard cell marker negative selection with antibody coated beads, by culture of the monocytes under a standard dendritic cell generation protocol with added GM-CSF and IL4 for 6 days. […] Conjugates, protein, and small molecule controls were added at 100 nM immediately after. After 48 hrs of co-culture supernatants were collected from wells and cytokine levels for T cell derived cytokines (IL2, IFNγ) and dendritic cell derived cytokines (IL6, IL 12p40) were measured by MSD multiplex ELISA and plate reader per manufacturer's instructions (Meso Scale Diagnostics LLC).

Experiment [3] concerns antigen-driven (FITC) ear inflammation. The experiment is described as follows: FITC antigen-driven ear inflammation in mice (ear swelling). In kind it is in vivo, Balb/c mice. The conditions noted are these: 24 hours after FITC rechallenge, ip 20 mpk conjugate or antibody, 10 mpk dexamethasone. On the procedure: Female Balb/c mice aged 6-7 weeks (Envigo Labs) were used. On day 0 ear thickness was measured in all mice using microcalipers. On day 0 mice were then sensitized to the antigen fluorescsein isothiocyanate (FITC) on a shaved flank by application of 50 microliters of 1% FITC in a formulation of 50% acetone:50% dibutyl phthalate. […] After 24 hours ear thickness was determined on the treated ear. […] Animals were bled for serum and sacrificed on day 9. […] Ear thickness and ELISA results were analyzed for differences in means with GraphPad Prism software by one-way ANOVA with Dunnett's multiple comparisons.

The subject of experiment [4] is GR-GAL4 Reporter (Luc)-HEK293 cell line stably expressing membrane human BAFF (memBAFF). The experiment is described as follows: GR-GAL4 luciferase reporter assay, memBAFF reporter cell line. In kind it is cell-based. As to the method:
(§1) To determine the level of GR agonism at the end of the incubation luciferase levels were determined with the Steady-Glo Luciferase Assay System (Promega, cat #E2520 or E2550). The results were analyzed with Graphpad Prism software v9.1 (Graphpad Inc) to determine EC50.
(§2) The memBAFF and parental GR-GAL4 luciferase cell reporter cell lines were plated in 96 well plates in complete DMEM media. […] To determine the level of GR agonism found for the different treatments, at the end of the incubation firefly luciferase was measured as per manufacturer's instructions with the Steady-Glo Luciferase Assay System (Promega, cat #E2520 or E2550) and then analyzed with Graphpad Prism software (Graphpad Inc v9.1) to determine EC50.

Experiment [5] relates to parental GR-GAL4 Reporter (Luc)-HEK293 cell line (non-BAFF-expressing). Description: GR-GAL4 luciferase reporter assay, parental reporter cell line (Anti-BAFF conjugates). In kind it is cell-based. As to the method: as §1, §2

Some results are limits rather than exact numbers.

As to `Cc1nn[nH]c1-c1ccc([C@@H]2O[C@@H]3C[C@H]4[C@@H]5CCC6=CC(=O)C=C[C@]6(C)[C@H]5[C@@H](O)C[C@]4(C)[C@]3(C(=O)CO)O2)cc1` [Compound 1], in experiment [1], the EC50 was found to be 22.2 nM.
Still for that read-out and setting: the figure for `C[C@]12C=CC(=O)C=C1CC[C@@H]1[C@@H]2[C@@H](O)C[C@@]2(C)[C@H]1C[C@H]1O[C@@H](c3ccc(Cn4ccnn4)cc3)O[C@]12C(=O)CO` [Compound 2] is 17 nM.
In the case of `C[C@]12C=CC(=O)C=C1CC[C@@H]1[C@@H]2[C@@H](O)C[C@@]2(C)[C@H]1C[C@H]1O[C@@H](c3ccc(Cc4c[nH]nn4)cc3)O[C@]12C(=O)CO` [Compound 3], the EC50 in experiment [1] was 25.1 nM.
The same measure, in the same setting: the figure for `Cn1nccc1[C@@H]1O[C@@H]2C[C@H]3[C@@H]4CCC5=CC(=O)C=C[C@]5(C)[C@H]4[C@@H](O)C[C@]3(C)[C@]2(C(=O)CO)O1` [Compound 4] is 21.8 nM; for `Cn1cc([C@@H]2O[C@@H]3C[C@H]4[C@@H]5CCC6=CC(=O)C=C[C@]6(C)[C@H]5[C@@H](O)C[C@]4(C)[C@]3(C(=O)CO)O2)cn1` [Compound 5] it is 49.1 nM.
Still for that read-out and setting: in the case of `C[C@]12C=CC(=O)C=C1CC[C@@H]1[C@@H]2[C@@H](O)C[C@@]2(C)[C@H]1C[C@H]1O[C@@H](c3ccc4c(c3)OCO4)O[C@]12C(=O)CO` [Compound 6] it was 25.2 nM.
Same read-out and setting: in the case of `C[C@]12C=CC(=O)C=C1CC[C@@H]1[C@@H]2[C@@H](O)C[C@@]2(C)[C@H]1C[C@H]1O[C@@H](c3ccc4c(c3)OCCO4)O[C@]12C(=O)CO` [Compound 7] it was 47 nM.
For the molecule `C[C@]12C=CC(=O)C=C1CC[C@H]1[C@@H]3C[C@H]4O[C@@H](c5ccccc5)O[C@@]4(C(=O)CO)[C@@]3(C)C[C@H](O)[C@@]12F` [Compound 8], in experiment [1], the EC50 is 1.1 nM.
As to `C[C@]12C=CC(=O)C=C1[C@@H](F)C[C@H]1[C@@H]3C[C@H]4O[C@@H](C5CCC5)O[C@@]4(C(=O)CO)[C@@]3(C)C[C@H](O)[C@@]12F` [Compound 14], in experiment [1], the EC50 was 0.68 nM.
The same measure, in the same setting: in the case of `C[C@]12C=CC(=O)C=C1[C@@H](F)C[C@H]1[C@@H]3C[C@H]4O[C@@H](C56CC(C5)C6)O[C@@]4(C(=O)CO)[C@@]3(C)C[C@H](O)[C@@]12F` [Compound 15] it was 2.9 nM.
Turning to `C[C@]12C=CC(=O)C=C1[C@@H](F)C[C@H]1[C@@H]3C[C@H]4O[C@@H](c5cccc(F)c5)O[C@@]4(C(=O)CN)[C@@]3(C)C[C@H](O)[C@@]12F` [Compound 16], the EC50 in experiment [1] was determined as 39.1 nM.
The same measure, in the same setting: in the case of `C[C@]12C=CC(=O)C=C1[C@@H](F)C[C@H]1[C@@H]3C[C@H]4O[C@@H](c5ccc(Oc6ccccc6)c(F)c5)O[C@@]4(C(=O)CO)[C@@]3(C)C[C@H](O)[C@@]12F` [Compound 18] it was 1.2 nM; in that of `C[C@]12C=CC(=O)C=C1[C@@H](F)C[C@H]1[C@@H]3C[C@H]4O[C@@H](c5ccc(OCC(F)(F)CN)c(F)c5)O[C@@]4(C(=O)CO)[C@@]3(C)C[C@H](O)[C@@]12F` [Compound 19], 23.8 nM; in that of `C[C@]12C=CC(=O)C=C1[C@@H](F)C[C@H]1[C@@H]3C[C@H]4O[C@@H](c5ccc(F)s5)O[C@@]4(C(=O)CO)[C@@]3(C)C[C@H](O)[C@@]12F` [Compound 27], 0.46 nM.
In the case of `C[C@]12C=CC(=O)C=C1[C@@H](F)C[C@H]1[C@@H]3C[C@H]4O[C@@H](c5sccc5F)O[C@@]4(C(=O)CO)[C@@]3(C)C[C@H](O)[C@@]12F` [Compound 30a], in experiment [1], the EC50 is 0.44 nM.
The same measure, in the same setting: the figure for `C[C@]12C=CC(=O)C=C1[C@@H](F)C[C@H]1[C@@H]3C[C@H]4O[C@@H](C#Cc5ccccc5)O[C@@]4(C(=O)CO)[C@@]3(C)C[C@H](O)[C@@]12F` [Compound 40] is 14.3 nM; for `C[C@]12C=CC(=O)C=C1[C@@H](F)C[C@H]1[C@@H]3C[C@H]4O[C@@H](C5CC6(CCOCC6)C5)O[C@@]4(C(=O)CO)[C@@]3(C)C[C@H](O)[C@@]12F` [Compound 42] it is 9 nM.
In the case of `C[C@]12C=CC(=O)C=C1[C@@H](F)C[C@H]1[C@@H]3C[C@H]4O[C@@H](c5cc6c(s5)CCCC6)O[C@@]4(C(=O)CO)[C@@]3(C)C[C@H](O)[C@@]12F` [Compound 43], the EC50 in experiment [1] was found to be 3.7 nM.
On the same count and under the same terms, the figure for `C[C@@H](c1ccccc1)[C@@H]1O[C@@H]2C[C@H]3[C@@H]4C[C@H](F)C5=CC(=O)C=C[C@]5(C)[C@@]4(F)[C@@H](O)C[C@]3(C)[C@]2(C(=O)CO)O1` [Compound 50] is 23 nM.
Same read-out and setting: in the case of `C[C@]12C=CC(=O)C=C1CC[C@H]1[C@@H]3C[C@H]4O[C@@H](C5CCC5)O[C@@]4(C(=O)CO)[C@@]3(C)C[C@H](O)[C@@]12F` [Compound 51] it was 1.2 nM.
On the same count and under the same terms, in the case of `C[C@]12C=CC(=O)C=C1CC[C@H]1[C@@H]3C[C@H]4O[C@@H](c5sccc5F)O[C@@]4(C(=O)CO)[C@@]3(C)C[C@H](O)[C@@]12F` [Compound 52a] it was 0.57 nM; in that of `C[C@]12C=CC(=O)C=C1CC[C@@H]1[C@@H]2[C@@H](O)C[C@@]2(C)[C@H]1C[C@H]1O[C@@H](c3sccc3F)O[C@]12C(=O)CO` [Compound 53a], 0.89 nM.
With `C[C@]12C=CC(=O)C=C1CC[C@@H]1[C@@H]2[C@@H](O)C[C@@]2(C)[C@H]1C[C@H]1O[C@@H](/C=C/C3CC3)O[C@]12C(=O)CO` [Compound 58], the EC50 in experiment [1] came out at 32.6 nM.
The same measure, in the same setting: the figure for `C[C@]12C=CC(=O)C=C1CC[C@@H]1[C@@H]2[C@@H](O)C[C@@]2(C)[C@H]1C[C@H]1O[C@@H](/C=C/c3cccc(N)c3)O[C@]12C(=O)CO` [Compound 67] is 172 nM; for `C[C@]12C=CC(=O)C=C1CC[C@@H]1[C@@H]2[C@@H](O)C[C@@]2(C)[C@H]1C[C@H]1O[C@@H](C3CCC3)O[C@]12C(=O)CO` [Compound 85] it is 4.9 nM.
As to `CCCC1O[C@@H]2C[C@H]3[C@@H]4CCC5=CC(=O)C=C[C@]5(C)[C@H]4[C@@H](O)C[C@]3(C)[C@]2(C(=O)CO)O1` (stereo partly shown) [budesonide, reference compound], in experiment [2], the “IFNγ % Media” value was found to be 1 % Media, the “IL2 % Media” value was determined as 14 % Media and the “IL12p40 % Media” value is reported as 1 % Media.
As for `C[C@@H]1C[C@H]2[C@@H]3CCC4=CC(=O)C=C[C@]4(C)[C@@]3(F)[C@@H](O)C[C@]2(C)[C@@]1(O)C(=O)CO` [dexamethasone, reference compound], the “Mean Swelling (mm)” value in experiment [3] is reported as 0.07 mm.
belimumab [Anti-BAFF (belimumab)]: in experiment [2], the “IFNγ % Media” value came to 140 % Media, the “IL2 % Media” value was determined as 72 % Media and the “IL12p40 % Media” value is 139 % Media. Further, the “IL6 % Media” value in experiment [2] (LLOQ = lower limit of quantitation in the MSD assay) came out at 121 % Media.
In the case of belimumab [BAFF mAb (belimumab)], the EC50 was above 500 nM in experiment [4] (Table 22, 24 hour incubation, * = low confidence in EC50 due to curve fit, read-out: EC50 (nM) Mem(BAFF) line) and above 500 nM in experiment [5] (Table 22, 24 hour incubation, * = low confidence in EC50 due to curve fit). For the same molecule, the “GR agonism over the complete dilution series” value is “no GR agonism” in experiment [4] (memBAFF line, 500 nM-[…]) and “no GR agonism” in experiment [5] (parental line, 500 nM-[…]).
